The results in this text go back to patent publication US11878975B2, “Substituted indole compounds useful as TLR inhibitors” (BRISTOL-MYERS SQUIBB COMPANY, priority 2017, dated 2024).

Holding throughout (format): cell-based
Assay [1] has as its target T1, human TLR7 (Homo sapiens, UniProt Q9NYK1).
T1 construct: host or cells: HEK-Blue cells
T1 sequence (Q9NYK1 27-1049): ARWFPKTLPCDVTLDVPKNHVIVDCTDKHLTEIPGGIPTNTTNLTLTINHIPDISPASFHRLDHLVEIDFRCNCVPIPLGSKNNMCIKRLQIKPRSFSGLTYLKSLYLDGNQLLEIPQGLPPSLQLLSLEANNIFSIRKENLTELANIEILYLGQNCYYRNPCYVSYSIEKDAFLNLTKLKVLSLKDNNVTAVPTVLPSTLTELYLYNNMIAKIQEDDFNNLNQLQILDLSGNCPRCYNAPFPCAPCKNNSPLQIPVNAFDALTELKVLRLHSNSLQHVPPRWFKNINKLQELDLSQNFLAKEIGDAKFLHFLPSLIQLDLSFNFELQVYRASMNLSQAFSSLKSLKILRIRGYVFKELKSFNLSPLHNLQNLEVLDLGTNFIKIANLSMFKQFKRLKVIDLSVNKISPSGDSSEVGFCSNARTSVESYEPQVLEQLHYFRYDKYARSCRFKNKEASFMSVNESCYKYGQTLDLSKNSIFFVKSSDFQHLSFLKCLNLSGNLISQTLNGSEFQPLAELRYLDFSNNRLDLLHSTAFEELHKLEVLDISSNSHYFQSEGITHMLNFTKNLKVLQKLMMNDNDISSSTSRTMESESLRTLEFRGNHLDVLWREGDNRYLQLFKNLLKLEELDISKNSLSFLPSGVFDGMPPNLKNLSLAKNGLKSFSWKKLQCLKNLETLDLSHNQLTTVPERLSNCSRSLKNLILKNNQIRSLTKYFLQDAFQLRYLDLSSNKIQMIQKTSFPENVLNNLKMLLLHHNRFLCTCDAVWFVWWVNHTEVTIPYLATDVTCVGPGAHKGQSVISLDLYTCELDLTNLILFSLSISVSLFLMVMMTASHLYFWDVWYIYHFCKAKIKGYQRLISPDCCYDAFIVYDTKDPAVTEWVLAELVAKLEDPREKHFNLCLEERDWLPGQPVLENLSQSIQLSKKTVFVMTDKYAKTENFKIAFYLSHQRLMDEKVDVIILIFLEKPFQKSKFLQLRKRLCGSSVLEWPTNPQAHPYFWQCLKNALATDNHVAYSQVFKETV
Briefly: TLR7 inhibition reporter assay (HEK-Blue cells, SEAP reporter, gardiquimod stimulation). The settings on record: HEK-Blue cells overexpressing human TLR7, SEAP reporter, gardiquimod 7.5 μM. The method, then: (§1) TLR7/8/9 Inhibition Reporter Assays
(§2) HEK-Blue™-cells (Invivogen) overexpressing human TLR7, TLR8 or TLR9 receptors were used for screening inhibitors of these receptors using an inducible SEAP (secreted embryonic alkaline phosphatase) reporter gene under the control of the IFN-β minimal promoter fused to five NF-κB and AP-1-binding sites. Briefly, cells are seeded into Greiner 384 well plates (15000 cells per well for TLR7, 20,000 for TLR8 and 25,000 for TLR9) and then treated with test compounds in DMSO to yield a final dose response concentration range of 0.05 nM-50 μM. After a 30 minute compound pre-treatment al room temperature, the cells are then stimulated with a TLR7 ligand (gardiquimod at a final concentration of 7.5 μM), TLR8 ligand (R848 at a final concentration of 15.9 μM) or TLR9 ligand (ODN2006 at a final concentration of 5 nM) to activate NF-κB and AP-1 which induce the production of SEAP. After a 22 hour incubation at 37° C., 5% CO2, SEAP levels are determined with the addition of HEK-Blue™ Detection reagent (Invivogen), a cell culture medium that allows for detection of SEAP, according to manufacturer's specifications. The percent inhibition is determined as the % reduction in the HEK-Blue signal present in wells treated with agonist plus DMSO alone compared to wells treated with a known inhibitor.
A general note: A reporter such as luciferase makes a cellular process visible.

Assay [2] deals with T2, human TLR8 (Homo sapiens, UniProt Q9NR97).
T2 construct: host or cells: HEK-Blue cells
T2 sequence (Q9NR97 27-1041): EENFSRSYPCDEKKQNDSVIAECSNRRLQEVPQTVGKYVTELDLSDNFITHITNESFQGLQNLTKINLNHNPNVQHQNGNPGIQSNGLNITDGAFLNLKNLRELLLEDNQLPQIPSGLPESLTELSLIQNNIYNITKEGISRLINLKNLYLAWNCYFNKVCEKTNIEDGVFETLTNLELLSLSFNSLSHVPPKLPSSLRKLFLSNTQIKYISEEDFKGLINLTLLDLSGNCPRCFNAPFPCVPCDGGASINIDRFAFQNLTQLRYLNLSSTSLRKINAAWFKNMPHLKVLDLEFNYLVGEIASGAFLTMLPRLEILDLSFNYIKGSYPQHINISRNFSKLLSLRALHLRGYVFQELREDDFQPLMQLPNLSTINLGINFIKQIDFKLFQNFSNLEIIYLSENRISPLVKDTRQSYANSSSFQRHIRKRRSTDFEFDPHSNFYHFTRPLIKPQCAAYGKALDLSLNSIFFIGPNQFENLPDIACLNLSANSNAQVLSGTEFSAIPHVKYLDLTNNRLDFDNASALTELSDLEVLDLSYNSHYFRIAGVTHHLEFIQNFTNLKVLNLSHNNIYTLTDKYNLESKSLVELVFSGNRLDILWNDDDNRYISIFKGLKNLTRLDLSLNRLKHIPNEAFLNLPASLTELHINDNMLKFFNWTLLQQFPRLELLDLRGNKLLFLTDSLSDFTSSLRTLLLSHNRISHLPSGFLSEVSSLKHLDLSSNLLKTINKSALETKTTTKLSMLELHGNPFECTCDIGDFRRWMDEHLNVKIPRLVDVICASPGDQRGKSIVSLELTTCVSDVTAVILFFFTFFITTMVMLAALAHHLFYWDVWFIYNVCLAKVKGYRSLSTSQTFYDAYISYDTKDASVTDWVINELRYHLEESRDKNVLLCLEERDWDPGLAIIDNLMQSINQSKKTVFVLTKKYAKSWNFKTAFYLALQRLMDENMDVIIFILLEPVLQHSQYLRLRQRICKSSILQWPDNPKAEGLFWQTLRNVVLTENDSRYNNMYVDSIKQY
The assay is described as follows: TLR8 inhibition reporter assay (HEK-Blue cells, SEAP reporter, R848 stimulation). Conditions: HEK-Blue cells overexpressing human TLR8, SEAP reporter, R848 15.9 μM. How it is done: as §1, §2

For assay [3], the target named is T3, human TLR9 (Homo sapiens, UniProt Q9NR96).
T3 construct: host or cells: HEK-Blue cells
T3 sequence (Q9NR96 26-1032): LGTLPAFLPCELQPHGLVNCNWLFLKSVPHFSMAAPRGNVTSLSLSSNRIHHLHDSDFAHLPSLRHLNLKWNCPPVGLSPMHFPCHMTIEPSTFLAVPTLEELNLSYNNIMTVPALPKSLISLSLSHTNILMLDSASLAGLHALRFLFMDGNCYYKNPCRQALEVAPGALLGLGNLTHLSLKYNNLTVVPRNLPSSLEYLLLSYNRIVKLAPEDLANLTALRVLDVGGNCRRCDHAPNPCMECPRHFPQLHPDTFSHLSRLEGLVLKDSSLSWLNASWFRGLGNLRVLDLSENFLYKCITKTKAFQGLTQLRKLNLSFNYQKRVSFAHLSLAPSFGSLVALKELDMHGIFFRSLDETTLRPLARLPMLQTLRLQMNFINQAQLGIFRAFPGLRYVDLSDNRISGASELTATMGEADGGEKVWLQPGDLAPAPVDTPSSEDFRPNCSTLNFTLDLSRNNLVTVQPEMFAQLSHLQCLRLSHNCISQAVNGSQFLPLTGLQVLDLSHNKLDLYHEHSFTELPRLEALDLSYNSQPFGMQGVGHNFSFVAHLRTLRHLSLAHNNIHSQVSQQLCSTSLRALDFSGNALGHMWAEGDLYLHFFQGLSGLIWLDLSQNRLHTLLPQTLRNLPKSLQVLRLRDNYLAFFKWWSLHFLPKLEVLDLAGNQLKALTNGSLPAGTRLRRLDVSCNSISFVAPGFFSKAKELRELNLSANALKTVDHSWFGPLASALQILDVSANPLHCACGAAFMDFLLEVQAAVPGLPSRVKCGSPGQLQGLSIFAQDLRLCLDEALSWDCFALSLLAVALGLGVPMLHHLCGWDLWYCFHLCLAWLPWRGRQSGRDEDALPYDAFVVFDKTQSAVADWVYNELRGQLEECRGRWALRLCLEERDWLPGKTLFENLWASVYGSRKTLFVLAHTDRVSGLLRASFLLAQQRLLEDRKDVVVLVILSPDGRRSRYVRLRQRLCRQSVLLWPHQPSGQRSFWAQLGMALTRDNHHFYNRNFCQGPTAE
The assay is described as follows: TLR9 inhibition reporter assay (HEK-Blue cells, SEAP reporter, ODN2006 stimulation). The settings on record: HEK-Blue cells overexpressing human TLR9, SEAP reporter, ODN2006 5 nM. The method, then:
as §1, §2

What is called IC50 is the concentration needed to halve the response being measured. On to `Cc1cc(-c2[nH]c3ccc(C4CCC(NC5CC5)CC4)cc3c2C(C)C)cn2ncnc12` (single isomer, unassigned) [Example 15], for which the IC50 in assay [1] amounted to 4 nM; in assay [2], 8.9 nM; in assay [3], 3590 nM.

As for `Cc1cc(-c2[nH]c3ccc(C4CCC(NC5CC5)CC4)cc3c2C(C)C)cn2ncnc12` (single isomer, unassigned) [Example 16], the IC50 in assay [1] was determined as 0.15 nM; in assay [2] it was 0.47 nM; in assay [3], 661 nM.

As for `COc1cc(-c2[nH]c3ccc(C4CCC(N5CC(O)C5)CC4)cc3c2C(C)C)cn2ncnc12` (single isomer, unassigned) [Example 20], the 50% inhibitory concentration (IC50) in assay [1] turned out to be 0.3 nM; in assay [2], 0.81 nM; in assay [3] it was 346 nM.

Take `COc1cc(-c2[nH]c3ccc(C4CCC(N5CC(O)C5)CC4)cc3c2C(C)C)cn2ncnc12` (single isomer, unassigned) [Example 22]: the IC50 in assay [1] was 0.85 nM; in assay [2], 3.9 nM; in assay [3], 1200 nM.

Consider `Cc1c(-c2[nH]c3ccc(C4CCC(N5CC(CO)(CO)C5)CC4)cc3c2C(C)C)cn2ncnc2c1C` (single isomer, unassigned) [Example 26], for which the IC50 in assay [1] is 0.92 nM; in assay [2], 0.84 nM; in assay [3] it was 260 nM.

Turning to `Cc1c(-c2[nH]c3ccc(C4CCC(N5CC(CO)(CO)C5)CC4)cc3c2C(C)C)cn2ncnc2c1C` (single isomer, unassigned) [Example 27], the values for the IC50 in assay [1], in assay [2] and in assay [3] were 2 nM, 2.8 nM and 1760 nM, respectively.

`Cc1cc(-c2[nH]c3ccc(C4CCC(N5CCN(C)CC5)CC4)cc3c2C(C)C)cc(C)n1` (single isomer, unassigned) [Example 36]: the IC50 in assay [1] was determined as 2 nM; in assay [2] it was 3.9 nM; in assay [3], 417 nM.

Turning to `Cc1cc(-c2[nH]c3ccc(C4CCC(N5CCN(C)CC5)CC4)cc3c2C(C)C)cc(C)n1` (single isomer, unassigned) [Example 37], the IC50 in assay [1] came out at 29 nM; in assay [2], 56 nM; in assay [3], 583 nM.

Take `COCCN1CCN(C2CCC(c3ccc4[nH]c(-c5cc(OC)c6ncnn6c5)c(C(C)C)c4c3)CC2)CC1` (single isomer, unassigned) [Example 38]: the IC50 in assay [1] stood at 1 nM; in assay [2], 2.1 nM; in assay [3] it was 2090 nM.

In the case of `COCCN1CCN(C2CCC(c3ccc4[nH]c(-c5cc(OC)c6ncnn6c5)c(C(C)C)c4c3)CC2)CC1` (single isomer, unassigned) [Example 39], the IC50 in assay [1] is 9 nM; in assay [2] it was 5.8 nM; in assay [3], 2230 nM.

As to `COc1cc(-c2[nH]c3ccc(C4CCC(NC5(C)COC5)CC4)cc3c2C(C)C)cn2ncnc12` (single isomer, unassigned) [Example 44], the IC50 in assay [1] was 0.21 nM; in assay [2], 0.76 nM; in assay [3] it was 1960 nM.

With `COc1cc(-c2[nH]c3ccc(C4CCC(NC5(C)COC5)CC4)cc3c2C(C)C)cn2ncnc12` (single isomer, unassigned) [Example 45], the IC50 is 1 nM in assay [1], 3.8 nM in assay [2] and 1990 nM in assay [3].

In the case of `Cc1cc(-c2[nH]c3ccc(C4CCC(NC5(C)COC5)CC4)cc3c2C(C)C)cn2ncnc12` (single isomer, unassigned) [Example 46], the IC50 in assay [1] was 0.1 nM; in assay [2], 0.84 nM; in assay [3], 1510 nM.

On to `Cc1cc(-c2[nH]c3ccc(C4CCC(NC5(C)COC5)CC4)cc3c2C(C)C)cn2ncnc12` (single isomer, unassigned) [Example 47], for which the IC50 in assay [1] came to 2 nM; in assay [2], 7.5 nM; in assay [3], 4650 nM.

As for `COc1ccc(CNC2CCC(c3ccc4[nH]c(-c5cc(C)nc(C)c5)c(C(C)C)c4c3)CC2)cc1` (single isomer, unassigned) [Example 49], the IC50 in assay [1] is 7 nM; in assay [2], 22 nM; in assay [3], 391 nM.

As to `COc1ccc(CNC2CCC(c3ccc4[nH]c(-c5cc(C)nc(C)c5)c(C(C)C)c4c3)CC2)cc1` (single isomer, unassigned) [Example 50], the figures for the IC50 in assay [1], in assay [2] and in assay [3] were 68 nM, 149 nM and 622 nM, respectively.
